In general, Kd refers to a measure of binding affinity in units of concentration.

In ChEMBL document CHEMBL3991601, “The target landscape of clinical kinase drugs” (Science, 2017) one finds Kd data, which are given here for 13 compounds.

Molecules are shown by their SMILES. Active and inactive are the calls of the source. For most assays here, no stated cut-off is given here; in the data, actives have a measured Kd and inactives only a lower limit. Bounds are passed on as bounds.

Targets include Aurora kinase B (Homo sapiens, UniProt Q96GD4); Ephrin type-A receptor 4 (Homo sapiens, UniProt P54764); Focal adhesion kinase 1 (Homo sapiens, UniProt Q05397).
Assay [1] has as its target T1, Acyl-CoA dehydrogenase family member 11 (Homo sapiens, UniProt Q709F0).
T1 sequence (Q709F0 whole entry): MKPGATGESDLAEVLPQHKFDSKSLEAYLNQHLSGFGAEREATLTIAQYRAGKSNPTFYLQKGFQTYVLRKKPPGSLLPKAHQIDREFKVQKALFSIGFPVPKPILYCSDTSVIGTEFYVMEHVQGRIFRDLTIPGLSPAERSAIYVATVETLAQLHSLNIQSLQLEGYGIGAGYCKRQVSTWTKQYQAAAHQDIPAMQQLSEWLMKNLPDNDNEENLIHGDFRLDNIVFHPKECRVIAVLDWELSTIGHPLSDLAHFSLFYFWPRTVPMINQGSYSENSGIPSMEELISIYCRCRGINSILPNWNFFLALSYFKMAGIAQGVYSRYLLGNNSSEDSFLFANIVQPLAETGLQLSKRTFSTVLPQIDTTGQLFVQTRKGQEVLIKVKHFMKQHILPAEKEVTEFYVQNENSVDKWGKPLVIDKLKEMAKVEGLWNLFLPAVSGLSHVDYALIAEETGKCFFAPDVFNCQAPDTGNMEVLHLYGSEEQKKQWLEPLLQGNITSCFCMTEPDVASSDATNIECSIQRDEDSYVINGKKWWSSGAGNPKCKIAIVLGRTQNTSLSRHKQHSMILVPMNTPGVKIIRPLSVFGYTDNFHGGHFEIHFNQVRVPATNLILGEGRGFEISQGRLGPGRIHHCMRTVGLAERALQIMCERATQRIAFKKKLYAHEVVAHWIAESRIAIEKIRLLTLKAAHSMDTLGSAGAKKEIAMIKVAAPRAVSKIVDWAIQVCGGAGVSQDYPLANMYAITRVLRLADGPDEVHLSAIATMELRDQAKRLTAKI

Assay [2] has as its target T2, Peroxisomal acyl-coenzyme A oxidase 1 (Homo sapiens, UniProt Q15067).
T2 sequence (Q15067 whole entry): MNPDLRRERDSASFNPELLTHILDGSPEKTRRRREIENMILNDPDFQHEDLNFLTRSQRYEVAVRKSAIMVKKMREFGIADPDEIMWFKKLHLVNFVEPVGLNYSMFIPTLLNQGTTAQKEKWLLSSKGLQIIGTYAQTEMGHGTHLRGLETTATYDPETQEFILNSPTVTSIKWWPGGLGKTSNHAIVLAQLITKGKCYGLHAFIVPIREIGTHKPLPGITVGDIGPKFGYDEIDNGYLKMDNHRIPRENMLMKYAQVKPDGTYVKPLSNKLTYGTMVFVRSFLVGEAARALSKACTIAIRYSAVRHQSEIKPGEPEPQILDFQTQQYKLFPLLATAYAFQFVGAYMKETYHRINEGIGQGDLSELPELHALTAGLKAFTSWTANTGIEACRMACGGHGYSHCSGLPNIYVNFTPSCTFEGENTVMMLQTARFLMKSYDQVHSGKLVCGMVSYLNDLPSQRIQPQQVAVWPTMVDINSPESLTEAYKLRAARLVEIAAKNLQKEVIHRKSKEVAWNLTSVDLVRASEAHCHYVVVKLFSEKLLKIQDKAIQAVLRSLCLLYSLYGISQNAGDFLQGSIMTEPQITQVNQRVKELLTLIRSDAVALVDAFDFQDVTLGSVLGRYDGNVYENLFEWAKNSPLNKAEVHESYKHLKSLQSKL

Assay [3] addresses T3, Serine/threonine-protein kinase ULK3 (Homo sapiens, UniProt Q6PHR2).
T3 sequence (Q6PHR2 whole entry): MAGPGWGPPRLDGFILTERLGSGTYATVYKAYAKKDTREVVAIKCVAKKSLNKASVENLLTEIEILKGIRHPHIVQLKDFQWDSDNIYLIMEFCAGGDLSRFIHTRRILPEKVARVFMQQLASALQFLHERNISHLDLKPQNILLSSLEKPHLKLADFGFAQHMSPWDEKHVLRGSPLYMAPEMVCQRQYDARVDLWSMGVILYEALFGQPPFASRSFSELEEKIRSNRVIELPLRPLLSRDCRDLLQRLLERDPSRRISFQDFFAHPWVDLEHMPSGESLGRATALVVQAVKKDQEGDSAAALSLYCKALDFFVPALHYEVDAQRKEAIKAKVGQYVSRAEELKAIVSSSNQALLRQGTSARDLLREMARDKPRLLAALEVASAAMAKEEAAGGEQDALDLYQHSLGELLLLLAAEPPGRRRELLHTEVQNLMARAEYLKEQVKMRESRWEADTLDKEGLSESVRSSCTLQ

For a further assay, the target named is T4, Scaffold protein ILK (Homo sapiens, UniProt Q13418).
T4 sequence (Q13418 whole entry): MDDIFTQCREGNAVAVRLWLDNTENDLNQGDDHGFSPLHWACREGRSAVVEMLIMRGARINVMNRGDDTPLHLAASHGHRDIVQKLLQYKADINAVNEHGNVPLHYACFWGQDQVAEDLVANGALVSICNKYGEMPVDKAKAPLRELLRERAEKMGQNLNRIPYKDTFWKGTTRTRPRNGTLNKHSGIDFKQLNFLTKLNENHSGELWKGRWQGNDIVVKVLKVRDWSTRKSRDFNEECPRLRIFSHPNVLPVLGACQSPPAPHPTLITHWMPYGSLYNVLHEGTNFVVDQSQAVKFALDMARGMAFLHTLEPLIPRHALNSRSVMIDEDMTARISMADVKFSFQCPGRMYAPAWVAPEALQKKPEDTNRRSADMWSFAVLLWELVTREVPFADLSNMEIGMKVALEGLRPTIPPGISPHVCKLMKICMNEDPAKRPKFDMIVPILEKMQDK

The target in assay [4] is Tyrosine-protein kinase Lck (Homo sapiens, UniProt P06239).
Tyrosine-protein kinase Lck, sequence (P06239 whole entry): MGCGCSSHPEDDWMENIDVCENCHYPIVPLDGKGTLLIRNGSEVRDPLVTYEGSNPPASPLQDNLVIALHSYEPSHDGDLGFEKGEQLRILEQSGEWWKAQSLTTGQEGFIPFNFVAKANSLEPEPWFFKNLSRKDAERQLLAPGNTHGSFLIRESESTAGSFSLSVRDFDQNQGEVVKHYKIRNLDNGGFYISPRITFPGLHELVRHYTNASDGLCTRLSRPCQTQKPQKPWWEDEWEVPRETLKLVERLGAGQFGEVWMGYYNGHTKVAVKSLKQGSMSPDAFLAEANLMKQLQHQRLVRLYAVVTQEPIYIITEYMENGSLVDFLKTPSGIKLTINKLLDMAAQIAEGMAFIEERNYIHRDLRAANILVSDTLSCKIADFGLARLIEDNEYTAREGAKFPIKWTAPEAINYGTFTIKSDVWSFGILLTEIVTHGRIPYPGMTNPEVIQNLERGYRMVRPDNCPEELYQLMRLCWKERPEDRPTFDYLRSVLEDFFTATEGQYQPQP
Assay [5] addresses Serine/threonine-protein kinase B-raf (Homo sapiens, UniProt P15056).

Focal adhesion kinase 1, sequence (Q05397 whole entry): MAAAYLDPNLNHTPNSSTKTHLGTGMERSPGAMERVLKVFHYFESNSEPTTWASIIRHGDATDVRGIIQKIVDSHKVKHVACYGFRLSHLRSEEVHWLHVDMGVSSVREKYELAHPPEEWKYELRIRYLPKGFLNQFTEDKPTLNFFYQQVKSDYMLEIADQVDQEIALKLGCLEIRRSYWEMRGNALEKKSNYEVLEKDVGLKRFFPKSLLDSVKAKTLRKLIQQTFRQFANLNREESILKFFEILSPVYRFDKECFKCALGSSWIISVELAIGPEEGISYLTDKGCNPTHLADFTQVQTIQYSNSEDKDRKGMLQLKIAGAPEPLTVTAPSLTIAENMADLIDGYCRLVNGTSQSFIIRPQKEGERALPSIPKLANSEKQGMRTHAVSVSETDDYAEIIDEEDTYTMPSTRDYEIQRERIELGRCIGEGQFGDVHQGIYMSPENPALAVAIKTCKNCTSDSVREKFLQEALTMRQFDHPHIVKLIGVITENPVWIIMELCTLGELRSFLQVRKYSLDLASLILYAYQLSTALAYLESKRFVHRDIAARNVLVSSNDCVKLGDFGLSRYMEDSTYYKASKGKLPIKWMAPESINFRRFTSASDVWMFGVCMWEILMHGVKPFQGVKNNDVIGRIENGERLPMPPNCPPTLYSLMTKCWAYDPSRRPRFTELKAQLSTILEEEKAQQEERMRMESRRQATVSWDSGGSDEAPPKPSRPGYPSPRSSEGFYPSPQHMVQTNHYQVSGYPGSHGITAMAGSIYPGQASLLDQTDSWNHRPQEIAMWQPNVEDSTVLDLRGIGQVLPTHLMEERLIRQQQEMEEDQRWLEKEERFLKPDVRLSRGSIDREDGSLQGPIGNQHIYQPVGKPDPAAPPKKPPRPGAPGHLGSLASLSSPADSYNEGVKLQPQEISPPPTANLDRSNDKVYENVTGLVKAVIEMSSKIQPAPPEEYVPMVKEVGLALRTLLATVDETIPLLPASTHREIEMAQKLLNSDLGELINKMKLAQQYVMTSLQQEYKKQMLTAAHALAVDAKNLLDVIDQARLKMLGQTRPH
Aurora kinase B, sequence (Q96GD4 whole entry): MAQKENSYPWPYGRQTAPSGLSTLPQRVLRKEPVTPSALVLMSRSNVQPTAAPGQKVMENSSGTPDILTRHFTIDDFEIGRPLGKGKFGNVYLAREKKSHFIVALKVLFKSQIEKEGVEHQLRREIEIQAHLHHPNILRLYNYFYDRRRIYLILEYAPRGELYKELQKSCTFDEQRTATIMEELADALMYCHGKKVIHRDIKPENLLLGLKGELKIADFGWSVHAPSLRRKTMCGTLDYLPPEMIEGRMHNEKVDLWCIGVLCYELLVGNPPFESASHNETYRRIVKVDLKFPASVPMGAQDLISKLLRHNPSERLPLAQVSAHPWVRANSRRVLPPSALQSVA
Serine/threonine-protein kinase B-raf, sequence (P15056 whole entry): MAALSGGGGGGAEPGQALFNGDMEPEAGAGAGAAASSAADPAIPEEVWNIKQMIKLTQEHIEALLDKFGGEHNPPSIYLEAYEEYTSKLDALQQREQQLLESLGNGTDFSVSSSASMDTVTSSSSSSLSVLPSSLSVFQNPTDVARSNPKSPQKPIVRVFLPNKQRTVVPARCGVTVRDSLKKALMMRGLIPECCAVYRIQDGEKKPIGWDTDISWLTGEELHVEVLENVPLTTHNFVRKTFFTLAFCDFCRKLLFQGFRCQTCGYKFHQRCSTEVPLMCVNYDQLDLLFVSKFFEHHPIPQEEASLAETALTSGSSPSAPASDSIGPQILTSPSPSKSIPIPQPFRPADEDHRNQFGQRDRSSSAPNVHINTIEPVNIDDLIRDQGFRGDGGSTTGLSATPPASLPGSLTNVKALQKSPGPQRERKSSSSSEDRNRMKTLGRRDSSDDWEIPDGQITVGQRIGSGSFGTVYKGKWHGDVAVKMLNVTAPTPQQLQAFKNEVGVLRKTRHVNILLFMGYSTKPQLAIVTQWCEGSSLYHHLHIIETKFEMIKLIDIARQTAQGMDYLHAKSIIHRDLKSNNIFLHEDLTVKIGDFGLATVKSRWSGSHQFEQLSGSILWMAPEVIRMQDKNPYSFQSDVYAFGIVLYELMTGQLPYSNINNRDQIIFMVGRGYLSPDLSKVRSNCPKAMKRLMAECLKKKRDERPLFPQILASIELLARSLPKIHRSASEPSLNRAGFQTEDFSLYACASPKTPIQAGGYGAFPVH
Ephrin type-A receptor 4, sequence (P54764 whole entry): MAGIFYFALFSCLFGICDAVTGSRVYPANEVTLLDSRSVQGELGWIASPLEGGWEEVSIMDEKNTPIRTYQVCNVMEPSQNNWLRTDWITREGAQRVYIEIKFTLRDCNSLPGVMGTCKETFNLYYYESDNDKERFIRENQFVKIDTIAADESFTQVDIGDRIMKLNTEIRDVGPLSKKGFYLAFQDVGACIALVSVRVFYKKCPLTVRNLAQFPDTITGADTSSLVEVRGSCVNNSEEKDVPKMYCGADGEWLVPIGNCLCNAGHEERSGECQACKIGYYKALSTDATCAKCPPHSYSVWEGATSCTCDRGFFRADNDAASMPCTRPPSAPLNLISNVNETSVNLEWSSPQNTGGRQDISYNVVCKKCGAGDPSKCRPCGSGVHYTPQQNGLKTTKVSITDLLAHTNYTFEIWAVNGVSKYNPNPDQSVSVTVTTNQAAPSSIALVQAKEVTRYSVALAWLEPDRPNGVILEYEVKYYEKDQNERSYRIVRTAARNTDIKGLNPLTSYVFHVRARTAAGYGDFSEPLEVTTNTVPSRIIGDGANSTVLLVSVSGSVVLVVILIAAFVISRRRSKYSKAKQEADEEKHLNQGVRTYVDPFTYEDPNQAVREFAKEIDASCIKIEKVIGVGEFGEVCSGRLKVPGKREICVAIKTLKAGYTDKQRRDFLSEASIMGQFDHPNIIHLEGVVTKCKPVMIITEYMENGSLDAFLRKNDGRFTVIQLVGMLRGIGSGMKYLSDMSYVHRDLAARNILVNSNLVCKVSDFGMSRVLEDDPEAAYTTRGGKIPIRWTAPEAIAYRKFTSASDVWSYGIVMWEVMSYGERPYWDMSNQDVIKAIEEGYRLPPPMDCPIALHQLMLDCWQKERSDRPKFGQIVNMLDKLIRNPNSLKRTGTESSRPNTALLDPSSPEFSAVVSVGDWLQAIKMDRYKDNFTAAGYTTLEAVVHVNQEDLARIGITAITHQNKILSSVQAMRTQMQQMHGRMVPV

For the compound `COc1cc2nccc(Oc3ccc(NC(=O)NC4CC4)c(Cl)c3)c2cc1C(N)=O` [LENVATINIB], the Kd on Aurora kinase B was 1.78 µM (active); in assay [1], > 30 µM (inactive); on Ephrin type-A receptor 4, > 30 µM (inactive); in [2] it was > 30 µM (inactive); in assay [3], > 30 µM (inactive); on Scaffold protein ILK, > 30 µM (inactive). Besides, the Kd (in [4]; on Focal adhesion kinase 1) was > 30 µM (inactive) in each case.

For the compound `Cc1ccc(NC(=O)c2ccc(CN3CC[C@H](N(C)C)C3)c(C(F)(F)F)c2)cc1Nc1nccc(-c2cncnc2)n1` [BAFETINIB], the Kd on Aurora kinase B was > 30 µM (inactive); in assay [1], > 30 µM (inactive); on Ephrin type-A receptor 4 it was 1.98 µM (active); in assay [2] it was > 30 µM (inactive); in [5], 1.14 µM (active); in assay [3], > 30 µM (inactive). The Kd on Scaffold protein ILK and on Focal adhesion kinase 1 was > 30 µM (inactive) throughout.

`Cc1c(F)cc(C(=O)NC2CC2)cc1-c1ccc(C(=O)NCC(C)(C)C)cn1` [LOSMAPIMOD]: the Kd (at Aurora kinase B; in assay [1]; on Ephrin type-A receptor 4; in [5]; in [3]; on Scaffold protein ILK) was > 30 µM (inactive) throughout. Besides, the Kd (in assay [4]; at Focal adhesion kinase 1) was > 30 µM (inactive) each time.

For `COc1cc(N2CCC(N3CCN(C)CC3)CC2)ccc1Nc1ncnc(Nc2ccccc2S(=O)(=O)C(C)C)n1` [ASP-3026], the Kd on Aurora kinase B is 0.1 µM (active); on Ephrin type-A receptor 4, > 30 µM (inactive); in assay [2], > 30 µM (inactive); in assay [5] it was > 30 µM (inactive); in assay [3], > 30 µM (inactive); on Scaffold protein ILK it was > 30 µM (inactive). Also, the Kd in assay [4] is 1.27 µM (active); at Focal adhesion kinase 1, 0.074 µM (active).

With `CNC(=O)c1cc(Oc2ccc(NC(=O)Nc3ccc(Cl)c(C(F)(F)F)c3)c(F)c2)ccn1` [REGORAFENIB], the Kd (on Aurora kinase B; in [1]; at Ephrin type-A receptor 4; in assay [2]; in assay [3]; on Scaffold protein ILK) was > 30 µM (inactive) each time. Moreover, the Kd (in [4]; on Focal adhesion kinase 1) was > 30 µM (inactive) in each case.

Turning to `CCCS(=O)(=O)Nc1ccc(F)c(C(=O)c2c[nH]c3ncc(-c4ccc(Cl)cc4)cc23)c1F` [VEMURAFENIB], the Kd (at Aurora kinase B; in [1]; at Ephrin type-A receptor 4; in assay [2]; in assay [3]; on Scaffold protein ILK) was > 30 µM (inactive) in each case. The Kd (in assay [4]; at Focal adhesion kinase 1) was > 30 µM (inactive) throughout.

Take `COc1cc(OC)c(/C=C/S(=O)(=O)Cc2ccc(OC)c(NCC(=O)O)c2)c(OC)c1` [RIGOSERTIB]: the Kd (at Aurora kinase B; in assay [1]; at Ephrin type-A receptor 4; in [5]; in assay [3]; on Scaffold protein ILK) was > 30 µM (inactive) throughout. Further, the Kd (in assay [4]; at Focal adhesion kinase 1) was > 30 µM (inactive) each time.

Take `Cn1ncc(Cl)c1-c1cc(C(=O)N[C@H](CN)Cc2cccc(F)c2)sc1Cl` [AFURESERTIB]: the Kd (on Aurora kinase B; at Ephrin type-A receptor 4; in assay [2]; in [5]; in [3]; on Scaffold protein ILK) was > 30 µM (inactive) in each case. In addition, the Kd (in assay [4]; on Focal adhesion kinase 1) was > 30 µM (inactive) in each case.

With `COC(=O)N[C@@H](C)CNc1nccc(-c2cn(C(C)C)nc2-c2cc(Cl)cc(NS(C)(=O)=O)c2F)n1` [ENCORAFENIB], the Kd (at Aurora kinase B; in assay [1]; on Ephrin type-A receptor 4; in [2]; in [3]; at Scaffold protein ILK) was > 30 µM (inactive) each time. The Kd (in [4]; on Focal adhesion kinase 1) was > 30 µM (inactive) throughout.

`Cc1ccc(S(=O)(=O)Nc2nc3ccccc3nc2Nc2ccc3nsnc3c2)cc1`: the Kd (on Aurora kinase B; in assay [1]; at Ephrin type-A receptor 4; in [2]; in assay [5]; in assay [3]) was > 30 µM (inactive) in each case. For the same compound, the Kd (in assay [4]; at Focal adhesion kinase 1) was > 30 µM (inactive) in each case.

As to `CN(C)C(=O)c1cc2cnc(Nc3ccc(N4CCNCC4)cn3)nc2n1C1CCCC1` [RIBOCICLIB], the Kd (at Aurora kinase B; at Ephrin type-A receptor 4; in [2]; in assay [5]; in assay [3]; at Scaffold protein ILK) was > 30 µM (inactive) throughout. Also, the Kd (in [4]; on Focal adhesion kinase 1) was > 30 µM (inactive) each time.

As for `O=C(Nc1ccc(-c2ccnc(Nc3ccc(N4CCOCC4)cc3)n2)cc1)C1CCCN1` (centres undefined) [XL-019], the Kd at Aurora kinase B is > 30 µM (inactive); at Ephrin type-A receptor 4, > 30 µM (inactive); in assay [2], > 30 µM (inactive); in assay [5], > 30 µM (inactive); in [3] it was 0.297 µM (active); on Scaffold protein ILK, > 30 µM (inactive). For the same compound, the Kd (in assay [4]; on Focal adhesion kinase 1) was > 30 µM (inactive) throughout.

Take `CN1N=C(N)c2cn([C@@H]3O[C@H](COP(=O)(O)O)[C@@H](O)[C@H]3O)c3ncnc1c23` [TRICIRIBINE PHOSPHATE]: the Kd (on Aurora kinase B; in assay [1]; on Ephrin type-A receptor 4; in assay [2]; in assay [5]; in assay [3]) was > 30 µM (inactive) each time. Also, the Kd (in assay [4]; at Focal adhesion kinase 1) was > 30 µM (inactive) throughout.
